In patent publication US7323118B2, “Composition of hypochlorous acid and its applications” (Aquilabs S.A., priority 2001, dated 2008):

Assays:
Assay in all cases: Cultures and tests of inhibition (culture agar, Petri box)
Type in all cases: cell-based
Settings in all cases: added to the culture agar; inhibition haloes in the Petri box
staphylococcus aureus = tested on: staphylococcus aureus
E. Coli = tested on: E. Coli
pseudomona = tested on: pseudomona

Measured: inhibition of growth

OCl [Hypochlorous acid]
full inhibition: all assays above
